# Measured values published in US20250387366A1, “TOPICAL OCULAR DELIVERY OF CROMAKALIM” (QLARIS BIO, INC., priority 2022, published 2025).
# Read-outs that look alike come from different tables or passages of the source.
# Assays:
# [1] = Solubility limit of levcromakalim in water (literature); assay type: physicochemical; settings: converted from 0.48 mg/ml
# Excerpt: Therefore, the Chiang Lin tested material undoubtedly had insoluble material which would have a deleterious effect on the eye and nullify the results. The Hamilton article also stated that cromakalim is soluble in ethanol, DMSO and PEG, none of which would be acceptable as the topical ocular carrier for human administration.
# [2] = reported by SmithKline Beecham 1993 (Hamilton et al.); cited from earlier work
# [3] = Toxicokinetics of levcromakalim in plasma, BID T.O. bilateral formulation 3d for 28 days in rabbits (Example 12, Table 11); assay type: in vivo, rabbit; settings: for AUC(0-t) / Cmax / Tmax / half-life: DB, rabbit, plasma, topical or ocular; for tlast: in h (unit assumed)
# Description: Plasma concentrations of levcromakalim were evaluated in DB rabbits after twice a day (BID) oculus uterque (OU, both eyes) topical ophthalmic (T.O.) administration of formulation 3d for 28 days at dose levels of 0, 0.012, 0.03, and 0.06 mg/eye/dose.
# Plasma concentrations of levcromakalim were evaluated in DB rabbits after BID OU T.O. administration of three concentrations of formulation 3d at dose levels of 0, 0.012, 0.03, and 0.06 mg/eye/dose (0, 0.024, 0.06, and 0.12 mg/eye/day respectively or 0.030% [1.0 mM], 0.075% [2.5 mM], or 0.15% [5 mM] respectively) for 28 days. Plasma was collected from 3 animals/dose group at pre-dose, 0.5, 1, 2, 3, 4, 6, and 12 hours post-first dose on Days 1 and 28.
# [4] = test system: patients with primary open-angle glaucoma; settings: Phase 2; cited from earlier work
# KATP channels = settings: in the presence of ATP (Brayden et al. 1991); cited from earlier work
# [5] = female, 0.012 mg, females, 0.012 mg/eye/dose BID OU T.O. formulation 3d, Day 1, rabbit plasma
# [6] = female, 0.012 mg, females, 0.012 mg/eye/dose BID OU T.O. formulation 3d, Day 28, rabbit plasma
# [7] = female, 0.03 mg, females, 0.03 mg/eye/dose BID OU T.O. formulation 3d, Day 1, rabbit plasma
# [8] = female, 0.03 mg, females, 0.03 mg/eye/dose BID OU T.O. formulation 3d, Day 28, rabbit plasma
# [9] = female, 0.06 mg, females, 0.06 mg/eye/dose BID OU T.O. formulation 3d, Day 1, rabbit plasma
# [10] = female, 0.06 mg, females, 0.06 mg/eye/dose BID OU T.O. formulation 3d, Day 28, rabbit plasma
# [11] = females, 0.012 mg/eye/dose BID OU T.O. formulation 3d, Day 1, rabbit plasma
# [12] = females, 0.012 mg/eye/dose BID OU T.O. formulation 3d, Day 28, rabbit plasma
# [13] = females, 0.03 mg/eye/dose BID OU T.O. formulation 3d, Day 1, rabbit plasma
# [14] = females, 0.03 mg/eye/dose BID OU T.O. formulation 3d, Day 28, rabbit plasma
# [15] = females, 0.06 mg/eye/dose BID OU T.O. formulation 3d, Day 1, rabbit plasma
# [16] = females, 0.06 mg/eye/dose BID OU T.O. formulation 3d, Day 28, rabbit plasma
# [17] = male, 0.012 mg, males, 0.012 mg/eye/dose BID OU T.O. formulation 3d, Day 1, rabbit plasma
# [18] = male, 0.012 mg, males, 0.012 mg/eye/dose BID OU T.O. formulation 3d, Day 28, rabbit plasma
# [19] = male, 0.03 mg, males, 0.03 mg/eye/dose BID OU T.O. formulation 3d, Day 1, rabbit plasma
# [20] = male, 0.03 mg, males, 0.03 mg/eye/dose BID OU T.O. formulation 3d, Day 28, rabbit plasma
# [21] = male, 0.06 mg, males, 0.06 mg/eye/dose BID OU T.O. formulation 3d, Day 1, rabbit plasma
# [22] = male, 0.06 mg, males, 0.06 mg/eye/dose BID OU T.O. formulation 3d, Day 28, rabbit plasma
# [23] = males, 0.012 mg/eye/dose BID OU T.O. formulation 3d, Day 1, rabbit plasma
# [24] = males, 0.012 mg/eye/dose BID OU T.O. formulation 3d, Day 28, rabbit plasma
# [25] = males, 0.03 mg/eye/dose BID OU T.O. formulation 3d, Day 1, rabbit plasma
# [26] = males, 0.03 mg/eye/dose BID OU T.O. formulation 3d, Day 28, rabbit plasma
# [27] = males, 0.06 mg/eye/dose BID OU T.O. formulation 3d, Day 1, rabbit plasma
# [28] = males, 0.06 mg/eye/dose BID OU T.O. formulation 3d, Day 28, rabbit plasma
compound,measurement,setting,value
CC1(C)Oc2ccc(C#N)cc2[C@@H](N2CCCC2=O)[C@@H]1O [levcromakalim],solubility limit in water,[1],0.048 % w/w
same,solubility limit in water,[2],480 µg/mL
same,AUC(0-t),[3]; [5],0.57 ng·h/mL
same,Cmax,[3]; [5],0.64 ng/mL
same,Tmax,[3]; [5],1.67 h
same,half-life,[3]; [5],1.84 h
same,AUC(0-t),[3]; [6],0.051 ng·h/mL
same,Cmax,[3]; [6],0.56 ng/mL
same,Tmax,[3]; [6],0.33 h
same,AUC(0-t),[3]; [7],3.99 ng·h/mL
same,Cmax,[3]; [7],1.75 ng/mL
same,Tmax,[3]; [7],0.67 h
same,half-life,[3]; [7],1.7 h
same,AUC(0-t),[3]; [8],3.58 ng·h/mL
same,Cmax,[3]; [8],1.76 ng/mL
same,Tmax,[3]; [8],0.67 h
same,half-life,[3]; [8],2.19 h
same,AUC(0-t),[3]; [9],8.89 ng·h/mL
same,Cmax,[3]; [9],2.85 ng/mL
same,Tmax,[3]; [9],1 h
same,half-life,[3]; [9],1.77 h
same,Cmax,[3]; [10],2.06 ng/mL
same,Tmax,[3]; [10],1.2 h
same,half-life,[3]; [10],1.97 h
same,AUCtlast/Dose,[3]; [11],23.74 ng·h/mL/mg
same,Cmax/Dose,[3]; [11],26.67 ng/mL/mg
same,tlast,[3]; [11],2.00
same,AUCtlast/Dose,[3]; [12],21.11 ng·h/mL/mg
same,Cmax/Dose,[3]; [12],23.21 ng/mL/mg
same,tlast,[3]; [12],2.25
same,AUCtlast/Dose,[3]; [13],66.44 ng·h/mL/mg
same,Cmax/Dose,[3]; [13],29.22 ng/mL/mg
same,tlast,[3]; [13],3.67
same,AUCtlast/Dose,[3]; [14],59.64 ng·h/mL/mg
same,Cmax/Dose,[3]; [14],29.41 ng/mL/mg
same,tlast,[3]; [14],3.33
same,AUCtlast/Dose,[3]; [15],74.06 ng·h/mL/mg
same,Cmax/Dose,[3]; [15],23.73 ng/mL/mg
same,tlast,[3]; [15],4.80
same,AUCtlast,[3]; [16],6.05 ng·h/mL
same,AUCtlast/Dose,[3]; [16],50.39 ng·h/mL/mg
same,Cmax/Dose,[3]; [16],17.13 ng/mL/mg
same,tlast,[3]; [16],4.80
same,AUC(0-t),[3]; [17],0.94 ng·h/mL
same,Cmax,[3]; [17],0.77 ng/mL
same,Tmax,[3]; [17],1.17 h
same,AUC(0-t),[3]; [18],0.14 ng·h/mL
same,Cmax,[3]; [18],0.37 ng/mL
same,Tmax,[3]; [18],0.33 h
same,AUC(0-t),[3]; [19],3.96 ng·h/mL
same,Cmax,[3]; [19],2.26 ng/mL
same,Tmax,[3]; [19],0.67 h
same,half-life,[3]; [19],1.28 h
same,AUC(0-t),[3]; [20],2.53 ng·h/mL
same,Cmax,[3]; [20],1.68 ng/mL
same,Tmax,[3]; [20],0.5 h
same,half-life,[3]; [20],2.88 h
same,AUC(0-t),[3]; [21],5.64 ng·h/mL
same,Cmax,[3]; [21],2.61 ng/mL
same,Tmax,[3]; [21],0.7 h
same,half-life,[3]; [21],1.72 h
same,Cmax,[3]; [22],2.58 ng/mL
same,Tmax,[3]; [22],0.6 h
same,half-life,[3]; [22],2.29 h
same,AUCtlast/Dose,[3]; [23],39.23 ng·h/mL/mg
same,Cmax/Dose,[3]; [23],32.12 ng/mL/mg
same,tlast,[3]; [23],1.50
same,AUCtlast/Dose,[3]; [24],5.78 ng·h/mL/mg
same,Cmax/Dose,[3]; [24],15.40 ng/mL/mg
same,tlast,[3]; [24],0.500
same,AUCtlast/Dose,[3]; [25],66.06 ng·h/mL/mg
same,Cmax/Dose,[3]; [25],28.88 ng/mL/mg
same,tlast,[3]; [25],3.00
same,AUCtlast/Dose,[3]; [26],42.11 ng·h/mL/mg
same,Cmax/Dose,[3]; [26],28.05 ng/mL/mg
same,tlast,[3]; [26],2.33
same,AUCtlast/Dose,[3]; [27],47.04 ng·h/mL/mg
same,Cmax/Dose,[3]; [27],21.78 ng/mL/mg
same,tlast,[3]; [27],3.60
same,AUCtlast,[3]; [28],6.11 ng·h/mL
same,AUCtlast/Dose,[3]; [28],50.96 ng·h/mL/mg
same,Cmax/Dose,[3]; [28],21.48 ng/mL/mg
same,tlast,[3]; [28],4.20
CC1(C)Oc2ccc(C#N)cc2[C@@H](N2CCCC2=O)[C@@H]1OP(=O)(O)O [QLS-101],hyperemia (eye redness),[4],no evidence of hyperemia
same,safety and tolerability profile,[4],favorable safety and tolerability profile
CC1(C)Oc2ccc(C#N)cc2C(N2CCCC2=O)C1O (centres unmarked) [Cromakalim],increase of open-state probability (Popen) of single KATP channels,KATP channels,more than 9 fold
